This note sets out measurements from patent US9109175B2, “Isoprenoid based alternative diesel fuel” (The Regents of the University of California, priority 2010, dated 2015).

Each structure is given as a SMILES string. Marks after values point to notes of the source that are not given here.

Holding throughout (format): physicochemical
Data set [1] can be described thus: Distillation temperature, ASTM D2887 / D86. As for the experimental part: (§1) Fuel property testing of hydrogenated bisabolene was carried out using standard ASTM methods known to and used by those of skill in the art. Table 1 sets forth the various fuel properties analyzed for each of Diesel Fuel Grade #2, bisabolene (mixture of isomers) and hydrogenated bisabolene as well as the ASTM test methods employed to analyze the particular fuel property.

The nature of another data set: API gravity, ASTM D4052. Particulars: ASTM D4052, 15.56° C. As to the method: as §1
Data set [2] is described as follows: Cloud point, ASTM D5773 / D2500. As for the experimental part:
as §1

Data set [3] is described as follows: Cetane number, ASTM D6890 / D613. Particulars: for Cetane number: ASTM D6890. As for the experimental part: “Cetane number” refers to a measure of how readily a fuel starts to burn (autoignite) under conditions described by ASTM D613 or ASTM D6890. A fuel with a high cetane number starts to burn shortly after it is injected into the cylinder; it has a short ignition delay period. Conversely, a fuel with a low cetane number resists autoignition and has a longer ignition delay period.
as §1

Data set [4] is described as follows: Kinetic viscosity, ASTM D445. Particulars: ASTM D445, 40° C. As to the method:
“Viscosity” refers to a measure of the resistance of a fuel or fuel composition to deform under shear stress. The generally accepted method for measuring the viscosity of a fuel is ASTM Standard D445, which is incorporated herein by reference.
as §1

The nature of a further data set: Flash point, ASTM D93. As to the method:
as §1

A short description of the next data set: Density, ASTM D4052. Particulars: ASTM D4052, 15.56° C. As for the experimental part:
“Density” refers to a measure of mass per volume at a particular temperature. The generally accepted method for measuring the density of a fuel is ASTM Standard D4052, which is incorporated herein by reference.
as §1

A further data set can be described thus: Freeze point, ASTM D5972. As to the method:
as §1

In the case of `CC(C)CCCC(C)C1CCC(C)CC1` (stereo not shown) [Hydrogenated commercial bisabolene, 1(1,5-dimethylhexyl)-4-methylcyclohexane], the Distillation in data set [1] is on record as 267^d ° C. Besides, the “API Gravity (@ 15.56° C.)” value in “API gravity, ASTM D4052” is recorded as 41. For the same compound, the Cloud point in data set [2] was under −78 °C. In data set [3], the Cetane number stood at 41.9. Moreover, the “Kinetic viscosity (@ 40° C.)” value in data set [4] was determined as 2.91 mm^2/s. The Flash point in the data set “Flash point, ASTM D93” came to 111 °C. The “Density (@ 15.56° C.)” value in the data set “Density, ASTM D4052” is given as 819.7 kg/m^3. Further, in “Freeze point, ASTM D5972”, the Freeze point was under −81 °C.
Consider `CC(C)CCCC(C)C1CCC(C)CC1` (stereo not shown) [hydrogenated bisabolene], for which, in data set [3], the “Derived Cetane Number (DCN)” value is given as “about 42”.
With `CC(C)CCCC(C)C1CCC(C)CC1` (stereo not shown) [Hydrogenated biosynthetic bisabolene, 1(1,5-dimethylhexyl)-4-methylcyclohexane], the Cetane number in data set [3] stood at 52.6.
